{"source": "the supplement of paper PMC4862054", "note": "Several values for one entry are separate records, joined by “and”; a condition that tells them apart may be missing. Equal entries are not always repeated."}
{"system": "BT-549", "experiment": "normalised viability (% of control), CellTiter-Blue; higher = more viable cells (about 100 = DMSO control)", "conditions": "1 nM; incubation time: 72 h", "summary_of_the_method": "(§1)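 Breast cancer cell lines in 20 µl suspension were seeded onto 384-well plates pre-loaded with compound dissolved in 5 µl medium, then incubated 72 h. CellTiter-Blue reagent (2.5 µl) was added for 2 h at 37 °C and fluorescence read at 560/590 nm. Each plate was normalised to vehicle (100) and a positive kill control (0), with Z'-factor quality control. The value is normalised viability at one listed concentration of the series.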", "units": {"normalised viability": "%"}}
{"compound": "O=C(/C=C/c1cccnc1)NCCCCC1CCN(C(=O)c2ccccc2)CC1", "note": "[FK-866]", "normalised viability": 95}
{"compound": "CC[C@@H]1C(=O)N(C)c2cnc(Nc3ccc(C(=O)NC4CCN(C)CC4)cc3OC)nc2N1C1CCCC1", "note": "[BI 2536]", "normalised viability": 85.2}
{"system": "BT-549", "experiment": "normalised viability (% of control), CellTiter-Blue; higher = more viable cells (about 100 = DMSO control)", "conditions": "10 nM; incubation time: 72 h", "summary_of_the_method": "as §1"}
{"compound": "Nc1ncn([C@H]2C[C@H](O)[C@@H](CO)O2)c(=O)n1", "note": "[Decitabine]", "normalised viability": "94.6% and 101%"}
{"compound": "CCN(CC)CCCC(C)Nc1c2ccc(Cl)cc2nc2ccc(OC)cc12", "note": "(stereo not given) [Mepacrine]", "normalised viability": "87.2%"}
{"compound": "Nc1nc2[nH]cc(CCc3ccc(C(=O)N[C@@H](CCC(=O)O)C(=O)O)cc3)c2c(=O)[nH]1", "note": "[Pemetrexed]", "normalised viability": "90.8%"}
{"compound": "COc1cc([C@@H]2c3cc4c(cc3[C@@H](O[C@@H]3O[C@@H]5CO[C@@H](c6cccs6)O[C@H]5[C@H](O)[C@H]3O)[C@H]3COC(=O)[C@H]23)OCO4)cc(OC)c1O", "note": "[Teniposide]", "normalised viability": "101%"}
{"compound": "COc1cc2nccc(Oc3ccc(NC(=O)Nc4cc(C)on4)c(Cl)c3)c2cc1OC", "note": "[Tivozanib]", "normalised viability": "82.7%"}
{"compound": "O=C(Cc1ccc(-c2ccc(OCCN3CCOCC3)cc2)cn1)NCc1ccccc1", "note": "[KX2-391]", "normalised viability": "95.5%"}
{"compound": "Nc1ccccc1NC(=O)c1ccc(CNC(=O)OCc2cccnc2)cc1", "note": "[Entinostat]", "normalised viability": "110%"}
{"compound": "C=CC(=O)Nc1cc2c(Nc3ccc(F)c(Cl)c3)ncnc2cc1OCCCN1CCOCC1", "note": "[Canertinib]", "normalised viability": "103%"}
{"compound": "CC[C@H](Nc1ncnc2[nH]cnc12)c1nc2cccc(F)c2c(=O)n1-c1ccccc1", "note": "[CAL-101]", "normalised viability": "100%"}
{"system": "BT-549", "experiment": "normalised viability (% of control), CellTiter-Blue; higher = more viable cells (about 100 = DMSO control)", "conditions": "25 nM; incubation time: 72 h", "summary_of_the_method": "as §1", "units": {"normalised viability": "%"}}
{"compound": "CC(=O)Nc1cccc(-n2c(=O)n(C3CC3)c(=O)c3c(Nc4ccc(I)cc4F)n(C)c(=O)c(C)c32)c1", "normalised viability": 92.3}
{"system": "BT-549", "experiment": "normalised viability (% of control), CellTiter-Blue; higher = more viable cells (about 100 = DMSO control)", "conditions": "99 nM; incubation time: 72 h", "summary_of_the_method": "as §1", "units": {"normalised viability": "%"}}
{"compound": "CCN(CC)CCCC(C)Nc1c2ccc(Cl)cc2nc2ccc(OC)cc12", "note": "(stereo not given) [Mepacrine]", "normalised viability": 82.2}
{"system": "BT-549", "experiment": "normalised viability (% of control), CellTiter-Blue; higher = more viable cells (about 100 = DMSO control)", "conditions": "100 nM; incubation time: 72 h", "summary_of_the_method": "as §1", "units": {"normalised viability": "%"}}
{"compound": "O=C(/C=C/c1cccnc1)NCCCCC1CCN(C(=O)c2ccccc2)CC1", "note": "[FK-866]", "normalised viability": 10.9}
{"compound": "CC[C@@H]1C(=O)N(C)c2cnc(Nc3ccc(C(=O)NC4CCN(C)CC4)cc3OC)nc2N1C1CCCC1", "note": "[BI 2536]", "normalised viability": 38.6}
{"system": "BT-549", "experiment": "normalised viability (% of control), CellTiter-Blue; higher = more viable cells (about 100 = DMSO control)", "conditions": "250 nM; incubation time: 72 h", "summary_of_the_method": "as §1", "units": {"normalised viability": "%"}}
{"compound": "CC(=O)Nc1cccc(-n2c(=O)n(C3CC3)c(=O)c3c(Nc4ccc(I)cc4F)n(C)c(=O)c(C)c32)c1", "normalised viability": 86.2}
{"system": "BT-549", "experiment": "normalised viability (% of control), CellTiter-Blue; higher = more viable cells (about 100 = DMSO control)", "conditions": "990 nM; incubation time: 72 h", "summary_of_the_method": "as §1", "units": {"normalised viability": "%"}}
{"compound": "CCN(CC)CCCC(C)Nc1c2ccc(Cl)cc2nc2ccc(OC)cc12", "note": "(stereo not given) [Mepacrine]", "normalised viability": 37.6}
{"system": "BT-549", "experiment": "normalised viability (% of control), CellTiter-Blue; higher = more viable cells (about 100 = DMSO control)", "conditions": "1000 nM; incubation time: 72 h", "summary_of_the_method": "as §1"}
{"compound": "Nc1ncn([C@H]2C[C@H](O)[C@@H](CO)O2)c(=O)n1", "note": "[Decitabine]", "normalised viability": "81.7% and 89.3%"}
{"compound": "O=C(/C=C/c1cccnc1)NCCCCC1CCN(C(=O)c2ccccc2)CC1", "note": "[FK-866]", "normalised viability": "10.7%"}
{"compound": "CC[C@@H]1C(=O)N(C)c2cnc(Nc3ccc(C(=O)NC4CCN(C)CC4)cc3OC)nc2N1C1CCCC1", "note": "[BI 2536]", "normalised viability": "44.2%"}
{"compound": "CCN(CC)CCCC(C)Nc1c2ccc(Cl)cc2nc2ccc(OC)cc12", "note": "(stereo not given) [Mepacrine]", "normalised viability": "88.9%"}
{"compound": "Nc1nc2[nH]cc(CCc3ccc(C(=O)N[C@@H](CCC(=O)O)C(=O)O)cc3)c2c(=O)[nH]1", "note": "[Pemetrexed]", "normalised viability": "90.7%"}
{"compound": "COc1cc([C@@H]2c3cc4c(cc3[C@@H](O[C@@H]3O[C@@H]5CO[C@@H](c6cccs6)O[C@H]5[C@H](O)[C@H]3O)[C@H]3COC(=O)[C@H]23)OCO4)cc(OC)c1O", "note": "[Teniposide]", "normalised viability": "62.4%"}
{"compound": "COc1cc2nccc(Oc3ccc(NC(=O)Nc4cc(C)on4)c(Cl)c3)c2cc1OC", "note": "[Tivozanib]", "normalised viability": "97.6%"}
{"compound": "O=C(Cc1ccc(-c2ccc(OCCN3CCOCC3)cc2)cn1)NCc1ccccc1", "note": "[KX2-391]", "normalised viability": "17.5%"}
{"compound": "Nc1ccccc1NC(=O)c1ccc(CNC(=O)OCc2cccnc2)cc1", "note": "[Entinostat]", "normalised viability": "102%"}
{"compound": "C=CC(=O)Nc1cc2c(Nc3ccc(F)c(Cl)c3)ncnc2cc1OCCCN1CCOCC1", "note": "[Canertinib]", "normalised viability": "90.7%"}
{"compound": "CC[C@H](Nc1ncnc2[nH]cnc12)c1nc2cccc(F)c2c(=O)n1-c1ccccc1", "note": "[CAL-101]", "normalised viability": "96.6%"}
{"system": "BT-549", "experiment": "normalised viability (% of control), CellTiter-Blue; higher = more viable cells (about 100 = DMSO control)", "conditions": "10000 nM; incubation time: 72 h", "summary_of_the_method": "as §1"}
{"compound": "Nc1ncn([C@H]2C[C@H](O)[C@@H](CO)O2)c(=O)n1", "note": "[Decitabine]", "normalised viability": "57.7% and 65.1%"}
{"compound": "CCN(CC)CCCC(C)Nc1c2ccc(Cl)cc2nc2ccc(OC)cc12", "note": "(stereo not given) [Mepacrine]", "normalised viability": "17.8%"}
{"compound": "Nc1nc2[nH]cc(CCc3ccc(C(=O)N[C@@H](CCC(=O)O)C(=O)O)cc3)c2c(=O)[nH]1", "note": "[Pemetrexed]", "normalised viability": "79.6%"}
{"compound": "COc1cc([C@@H]2c3cc4c(cc3[C@@H](O[C@@H]3O[C@@H]5CO[C@@H](c6cccs6)O[C@H]5[C@H](O)[C@H]3O)[C@H]3COC(=O)[C@H]23)OCO4)cc(OC)c1O", "note": "[Teniposide]", "normalised viability": "8.99%"}
{"compound": "COc1cc2nccc(Oc3ccc(NC(=O)Nc4cc(C)on4)c(Cl)c3)c2cc1OC", "note": "[Tivozanib]", "normalised viability": "36.5%"}
{"compound": "O=C(Cc1ccc(-c2ccc(OCCN3CCOCC3)cc2)cn1)NCc1ccccc1", "note": "[KX2-391]", "normalised viability": "20.7%"}
{"compound": "Nc1ccccc1NC(=O)c1ccc(CNC(=O)OCc2cccnc2)cc1", "note": "[Entinostat]", "normalised viability": "61.4%"}
{"compound": "C=CC(=O)Nc1cc2c(Nc3ccc(F)c(Cl)c3)ncnc2cc1OCCCN1CCOCC1", "note": "[Canertinib]", "normalised viability": "2.56%"}
{"compound": "CC[C@H](Nc1ncnc2[nH]cnc12)c1nc2cccc(F)c2c(=O)n1-c1ccccc1", "note": "[CAL-101]", "normalised viability": "71.8%"}
{"system": "CAL-120", "experiment": "normalised viability (% of control), CellTiter-Blue; higher = more viable cells (about 100 = DMSO control)", "conditions": "0.25 nM; incubation time: 72 h", "summary_of_the_method": "as §1", "units": {"normalised viability": "%"}}
{"compound": "CC(=O)Nc1cccc(-n2c(=O)n(C3CC3)c(=O)c3c(Nc4ccc(I)cc4F)n(C)c(=O)c(C)c32)c1", "normalised viability": 113}
{"system": "CAL-120", "experiment": "normalised viability (% of control), CellTiter-Blue; higher = more viable cells (about 100 = DMSO control)", "conditions": "0.99 nM; incubation time: 72 h", "summary_of_the_method": "as §1", "units": {"normalised viability": "%"}}
{"compound": "CCN(CC)CCCC(C)Nc1c2ccc(Cl)cc2nc2ccc(OC)cc12", "note": "(stereo not given) [Mepacrine]", "normalised viability": 114}
{"system": "CAL-120", "experiment": "normalised viability (% of control), CellTiter-Blue; higher = more viable cells (about 100 = DMSO control)", "conditions": "1 nM; incubation time: 72 h", "summary_of_the_method": "as §1", "units": {"normalised viability": "%"}}
{"compound": "O=C(/C=C/c1cccnc1)NCCCCC1CCN(C(=O)c2ccccc2)CC1", "note": "[FK-866]", "normalised viability": 107}
{"compound": "CC[C@@H]1C(=O)N(C)c2cnc(Nc3ccc(C(=O)NC4CCN(C)CC4)cc3OC)nc2N1C1CCCC1", "note": "[BI 2536]", "normalised viability": 97.5}
{"system": "CAL-120", "experiment": "normalised viability (% of control), CellTiter-Blue; higher = more viable cells (about 100 = DMSO control)", "conditions": "10 nM; incubation time: 72 h", "summary_of_the_method": "as §1"}
{"compound": "Nc1ncn([C@H]2C[C@H](O)[C@@H](CO)O2)c(=O)n1", "note": "[Decitabine]", "normalised viability": "88.1% and 89.4%"}
{"compound": "CCN(CC)CCCC(C)Nc1c2ccc(Cl)cc2nc2ccc(OC)cc12", "note": "(stereo not given) [Mepacrine]", "normalised viability": "102%"}
{"compound": "Nc1nc2[nH]cc(CCc3ccc(C(=O)N[C@@H](CCC(=O)O)C(=O)O)cc3)c2c(=O)[nH]1", "note": "[Pemetrexed]", "normalised viability": "84.2%"}
{"compound": "COc1cc([C@@H]2c3cc4c(cc3[C@@H](O[C@@H]3O[C@@H]5CO[C@@H](c6cccs6)O[C@H]5[C@H](O)[C@H]3O)[C@H]3COC(=O)[C@H]23)OCO4)cc(OC)c1O", "note": "[Teniposide]", "normalised viability": "108%"}
{"compound": "COc1cc2nccc(Oc3ccc(NC(=O)Nc4cc(C)on4)c(Cl)c3)c2cc1OC", "note": "[Tivozanib]", "normalised viability": "101%"}
{"compound": "O=C(Cc1ccc(-c2ccc(OCCN3CCOCC3)cc2)cn1)NCc1ccccc1", "note": "[KX2-391]", "normalised viability": "93.5%"}
{"compound": "Nc1ccccc1NC(=O)c1ccc(CNC(=O)OCc2cccnc2)cc1", "note": "[Entinostat]", "normalised viability": "90.1%"}
{"compound": "C=CC(=O)Nc1cc2c(Nc3ccc(F)c(Cl)c3)ncnc2cc1OCCCN1CCOCC1", "note": "[Canertinib]", "normalised viability": "79.9%"}
{"compound": "CC[C@H](Nc1ncnc2[nH]cnc12)c1nc2cccc(F)c2c(=O)n1-c1ccccc1", "note": "[CAL-101]", "normalised viability": "95.6%"}
